{"source": "patent US10774385B2", "about": "“Method of determining risk of 5-fluorouracil toxicity” (Oxford University Innovation Limited, priority 2014, dated 2020)", "key": {"[1]": {"conditions": "cited from earlier work"}, "[2]": {"test": "QUASAR2 trial: FU-related adverse events of capecitabine +/- bevacizumab graded by NCI CTCAE v3.0", "type": "in vivo, human", "protocol": "The QUASAR2 study (http://www.octo-oxford.org.uk/alltrials/infollowup/q2.html; http://www.controlled-trials.com/ISRCTN45133151/) is a phase III randomised controlled trial of adjuvant capecitabine (Xeloda) (1250 mg/m2 twice daily d1-14 every 3 weeks, total of 8 cycles) +/−bevacizumab (7.5 mg/kg every three weeks) following resection of stage II/III CRC. Patients were entered into the study between July 2005 and December 2011 at 123 UK and 81 non-UK sites. Of 1119 patients with blood collected as of July 2010, 1046 were selected for study based on availability of clinical data and informed consent.\nAdverse events were graded following each treatment cycle using the NCI Common Toxicity Criteria for Adverse Events (CTCAE) version 3.0. Common FU-related toxicities—diarrhea, nausea and vomiting, mucositis/stomatitis, neutropaenia, thrombocytopaenia, and HFS—were analysed individually and also in combination as “global” toxicity. Adverse events were categorised as low (CTCAE grade 0/1/2) and high (CTCAE grade 3/4/5 at any treatment cycle). Hypertension and proteinuria were clearly related to bevacizumab (˜10-fold higher incidence) and were not included in the analysis.\nThe QUASAR2 study was used as described in Example 1(a)(i). Of 1,119 patients with blood collected as of July 2010, 1,046 were selected for genetic study based on completeness of clinical data and informed consent.\nToxicity phenotype data were collected as part of QUASAR2 according the NCI Common Toxicity Criteria for Adverse Events (CTCAE) version 3.0. Maximum toxicity (0-4) at any treatment cycle was derived for each of the following individual FU-related toxicities: diarrhea, nausea and vomiting, mucositis/stomatitis, neutropaenia, thrombocytopaenia and HFS. A global measure of toxicity was derived, defined as the maximum individual toxicity score measured for each patient. Global and individual toxicities were analysed using two approaches: (i) a binary classification into low toxicity (grade 0-2) versus high (dose-limiting) toxicity (grade 3-4); and (ii) a quantitative measure of toxicity. In the latter, if <100 patients experienced a particular grade of toxicity, these patients were combined into a single bin with an adjacent grade. Specifically, grades 01v2v34 for global, diarrhea and HFS and 0v1234 for the other, rarer toxicity phenotypes were analysed."}, "[3]": {"test": "Spanish Capecitabine Pharmacogenetic (SCP) Study: diarrhea and HFS by CTCAE v3.0", "type": "in vivo, human", "conditions": "capecitabine monotherapy", "protocol": "Two additional data sets were used for validation of toxicity associations. The Spanish Capecitabine Pharmacogenetic (SCP) Study consisted of 233 colorectal and breast cancer patients prospectively recruited through several oncology units in Spain and treated with one of two capecitabine monotherapy regimens (standard: 1250 mg/m^2 twice daily d1-14 every 3 weeks; continuous: 800 mg/m^2 orally every 12 hours daily). HFS and diarrhea data Table 4 were collected according to CTCAEv3.0."}, "[4]": {"conditions": "human, in vivo, 8 cycles of 3 weeks"}, "[5]": {"conditions": "patients selected for high and low toxicity"}}}
{"smiles": "O=c1[nH]cc(F)c(=O)[nH]1", "note": "[FU, 5-fluorouracil]", "values": [{"measurement": "Patients suffering substantial toxicities (Grade 3 or above, CTCAE v3.0)", "setting": "[1]; FU chemotherapy, background statement", "result": "10-30%"}, {"measurement": "Mortality (Grade 5, CTCAE v3.0) associated with FU use", "setting": "[1]; overall, literature", "result": "0.5-1.0%"}]}
{"smiles": "CCCCCOC(=O)Nc1nc(=O)n(C2OC(C)C(O)C2O)cc1F", "note": "(stereo not drawn) [capecitabine, pentyl [1-(3,4-dihydroxy-5-methyltetrahydrofuran-2-yl)-5-fluoro-2-oxo-1H-pyrimidin-4-yl]carbamate]", "values": [{"measurement": "Share of capecitabine patients suffering dose-limiting levels of drug-induced adverse events", "setting": "[1]; background statement", "result": "approximately one third"}, {"measurement": "Mortality from rapid-onset toxicity relative to infusional and bolus 5-FU regimens (0.5% to 2%)", "setting": "[1]; capecitabine schedules, literature", "result": "about half that number"}, {"measurement": "Toxicity-induced deaths in QUASAR2", "setting": "[2]; QUASAR2, patients with grade 4 myelotoxicity", "result": "two"}, {"measurement": "Patients, Global adverse event, CTCAE grade 0", "setting": "[2]; [4]", "result": 75}, {"measurement": "Patients, Global adverse event, CTCAE grade 1", "setting": "[2]; [4]", "result": 241}, {"measurement": "Patients, Global adverse event, CTCAE grade 2", "setting": "[2]; [4]", "result": 375}, {"measurement": "Patients, Global adverse event, CTCAE grade 3", "setting": "[2]; [4]", "result": 334}, {"measurement": "Patients, Neutropaenia, CTCAE grade 0", "setting": "[2]; [4]", "result": 921}, {"measurement": "Patients, Neutropaenia, CTCAE grade 1", "setting": "[2]; [4]", "result": 71}, {"measurement": "Patients, Neutropaenia, CTCAE grade 2", "setting": "[2]; [4]", "result": 28}, {"measurement": "Patients, Neutropaenia, CTCAE grade 3", "setting": "[2]; [4]", "result": 17}, {"measurement": "Patients, Thrombocytopaenia, CTCAE grade 0", "setting": "[2]; [4]", "result": 961}, {"measurement": "Patients, Thrombocytopaenia, CTCAE grade 1", "setting": "[2]; [4]", "result": 67}, {"measurement": "Patients, Thrombocytopaenia, CTCAE grade 2", "setting": "[2]; [4]", "result": 9}, {"measurement": "Patients, Thrombocytopaenia, CTCAE grade 3", "setting": "[2]; [4]", "result": 0}, {"measurement": "Patients, Thrombocytopaenia, CTCAE grade 4", "setting": "[2]; [4]", "result": 4}, {"measurement": "Patients, Vomiting, CTCAE grade 3", "setting": "[2]; [4]", "result": 12}, {"measurement": "Patients, Vomiting, CTCAE grade 4", "setting": "[2]; [4]", "result": 3}, {"measurement": "Patients, Diarrhoea, CTCAE grade 0", "setting": "[2]; human, in vivo, 24 weeks", "result": 370}, {"measurement": "Patients, Diarrhoea, CTCAE grade 1", "setting": "[2]; human, in vivo, 24 weeks", "result": 388}, {"measurement": "Patients, Diarrhoea, CTCAE grade 2", "setting": "[2]; human, in vivo, 24 weeks", "result": 175}, {"measurement": "Patients, Diarrhoea, CTCAE grade 3", "setting": "[2]; human, in vivo, 24 weeks", "result": 99}, {"measurement": "Patients, Diarrhoea, CTCAE grade 4", "setting": "[2]; human, in vivo, 24 weeks", "result": 10}, {"measurement": "Patients, Global adverse event, CTCAE grade 4", "setting": "[2]; human, in vivo, 24 weeks", "result": 19}, {"measurement": "Patients, Handfoot, CTCAE grade 0", "setting": "[2]; human, in vivo, 24 weeks", "result": 176}, {"measurement": "Patients, Handfoot, CTCAE grade 1", "setting": "[2]; human, in vivo, 24 weeks", "result": 287}, {"measurement": "Patients, Handfoot, CTCAE grade 2", "setting": "[2]; human, in vivo, 24 weeks", "result": 331}, {"measurement": "Patients, Handfoot, CTCAE grade 3", "setting": "[2]; human, in vivo, 24 weeks", "result": 246}, {"measurement": "Patients, Handfoot, CTCAE grade 4", "setting": "[2]; human, in vivo, 24 weeks", "result": 1}, {"measurement": "Patients, Mucositis, CTCAE grade 0", "setting": "[2]; human, in vivo, 24 weeks", "result": 734}, {"measurement": "Patients, Mucositis, CTCAE grade 1", "setting": "[2]; human, in vivo, 24 weeks", "result": 248}, {"measurement": "Patients, Mucositis, CTCAE grade 2", "setting": "[2]; human, in vivo, 24 weeks", "result": 49}, {"measurement": "Patients, Mucositis, CTCAE grade 3", "setting": "[2]; human, in vivo, 24 weeks", "result": 11}, {"measurement": "Patients, Mucositis, CTCAE grade 4", "setting": "[2]; human, in vivo, 24 weeks", "result": 0}, {"measurement": "Patients, Stomatitis, CTCAE grade 0", "setting": "[2]; human, in vivo, 24 weeks", "result": 718}, {"measurement": "Patients, Stomatitis, CTCAE grade 1", "setting": "[2]; human, in vivo, 24 weeks", "result": 244}, {"measurement": "Patients, Stomatitis, CTCAE grade 2", "setting": "[2]; human, in vivo, 24 weeks", "result": 67}, {"measurement": "Patients, Stomatitis, CTCAE grade 3", "setting": "[2]; human, in vivo, 24 weeks", "result": 11}, {"measurement": "Patients, Stomatitis, CTCAE grade 4", "setting": "[2]; human, in vivo, 24 weeks", "result": 1}, {"measurement": "Patients, Vomiting, CTCAE grade 0", "setting": "[2]; human, in vivo, 24 weeks", "result": 817}, {"measurement": "Patients, Vomiting, CTCAE grade 1", "setting": "[2]; human, in vivo, 24 weeks", "result": 134}, {"measurement": "Patients, Vomiting, CTCAE grade 2", "setting": "[2]; human, in vivo, 24 weeks", "result": 74}, {"measurement": "Patients, Diarrhoea, highest CTCAE grade reported during treatment: 0", "setting": "[3]; 233 colorectal and breast cancer patients, selected for high and low toxicity", "result": 143}, {"measurement": "Patients, Diarrhoea, highest CTCAE grade reported during treatment: 1", "setting": "[3]; [5]", "result": 23}, {"measurement": "Patients, Diarrhoea, highest CTCAE grade reported during treatment: 2", "setting": "[3]; [5]", "result": 17}, {"measurement": "Patients, Diarrhoea, highest CTCAE grade reported during treatment: 3", "setting": "[3]; [5]", "result": 32}, {"measurement": "Patients, Diarrhoea, highest CTCAE grade reported during treatment: 4", "setting": "[3]; [5]", "result": 4}, {"measurement": "Patients, Handfoot, highest CTCAE grade reported during treatment: 0", "setting": "[3]; [5]", "result": 85}, {"measurement": "Patients, Handfoot, highest CTCAE grade reported during treatment: 1", "setting": "[3]; [5]", "result": 28}, {"measurement": "Patients, Handfoot, highest CTCAE grade reported during treatment: 2", "setting": "[3]; [5]", "result": 30}, {"measurement": "Patients, Handfoot, highest CTCAE grade reported during treatment: 3", "setting": "[3]; [5]", "result": 86}, {"measurement": "Patients, Handfoot, highest CTCAE grade reported during treatment: 4", "setting": "[3]; [5]", "result": 2}]}
